Laboratory results reported in US9670210B2, “Cyclopropylamines as LSD1 inhibitors” (Incyte Corporation, priority 2014, dated 2017).

Target: LSD-1 enzyme (Homo sapiens (Human), UniProt O60341)
Description: LSD1 Histone Demethylase Biochemical Assay
LANCE LSD1/KDM1A demethylase assay-10 μL of 1 nM LSD-1 enzyme (ENZO BML-SE544-0050) in the assay buffer (50 mM Tris, pH 7.5, 0.01% Tween-20, 25 mM NaCl, 5 mM DTT) were preincubated for 1 hour at 25° C. with 0.8 μL compound/DMSO dotted in black 384 well polystyrene plates. […] After stopping the reactions plates were incubated for 30 minutes and read on a PHERAstar FS plate reader (BMG Labtech).

Structure (SMILES) | IC50 [nM]
O=C(O)C1(CN2CCC(CN[C@@H]3C[C@H]3c3ccccc3)(COc3ncccc3F)CC2)CC1 [Example 89, 1-{[4-{[(3-fluoropyridin-2-yl)oxy]methyl}-4-({[(1R,2S)-2-phenylcyclopropyl]amino}methyl)piperidin-1-yl]methyl}cyclopropanecarboxylic acid] | < 100
O=C(O)C1(CN2CCC(CN[C@@H]3C[C@H]3c3ccccc3)(COCc3ccccc3)CC2)CCC1 [Example 73, 1-{[4-[(benzyloxy)methyl]-4-({[(1R,2S)-2-phenylcyclopropyl]amino}methyl)piperidin-1-yl]methyl}cyclobutanecarboxylic acid] | < 100
N#CC1(c2ccccc2)CCN(C(=O)N2CC(CN[C@@H]3C[C@H]3c3ccccc3)C2)CC1 (relative stereo) [Example 16, 4-Phenyl-1-[(3-{[(trans-2-phenylcyclopropyl)amino]methyl}azetidin-1-yl)carbonyl]piperidine-4-carbonitrile] | < 100
COCC1(CN[C@@H]2C[C@H]2c2ccccc2)CCN(C(=O)c2cnn(CCO)c2)CC1 [Example 103, 2-(4-{[4-(methoxymethyl)-4-({[(1R,2S)-2-phenylcyclopropyl]amino}methyl)piperidin-1-yl]carbonyl}-1H-pyrazol-1-yl)ethanol] | < 100
COCC1(CN[C@@H]2C[C@H]2c2ccccc2)CCN(C(=O)C2CCN(C)CC2)CC1 [Example 41, (1R,2S)—N-({4-(methoxymethyl)-1-[(1-methylpiperidin-4-yl)carbonyl]piperidin-4-yl}methyl)-2-phenylcyclopropanamine] | < 100
O=C(O)C1(CN2CCC(CN[C@@H]3C[C@H]3c3ccccc3)(COC3CCCCC3)CC2)CC1 [Example 94, 1-{[4-[(cyclohexyloxy)methyl]-4-({[(1R,2S)-2-phenylcyclopropyl]amino}methyl)piperidin-1-yl]methyl}cyclopropanecarboxylic acid] | < 100
O=C(O)C1(CN2CCC(CN[C@@H]3C[C@H]3c3ccccc3)(COc3ccc(F)cn3)CC2)CC1 [Example 87, 1-{[4-{[(5-fluoropyridin-2-yl)oxy]methyl}-4-({[(1R,2S)-2-phenylcyclopropyl]amino}methyl)piperidin-1-yl]methyl}cyclopropanecarboxylic acid] | < 100
O=C(O)C1(CN2CCC(CN[C@@H]3C[C@H]3c3ccccc3)(COCC3CCC3)CC2)CCC1 [Example 93, 1-{[4-[(cyclobutylmethoxy)methyl]-4-({[(1R,2S)-2-phenylcyclopropyl]amino}methyl)piperidin-1-yl]methyl}cyclobutanecarboxylic acid] | < 100
CNC(=O)c1ccc(OCC2(CN[C@@H]3C[C@H]3c3ccccc3)CCN(CC3(C(=O)O)CC3)CC2)cn1 [Example 90, 1-{[4-[({6-[(methylamino)carbonyl]pyridin-3-yl}oxy)methyl]-4-({[(1R,2S)-2-phenylcyclopropyl]amino}methyl)piperidin-1-yl]methyl}cyclopropanecarboxylic acid] | < 100
N#Cc1ccc(CC2(CN[C@@H]3C[C@H]3c3ccccc3)CCN(CC3(C(=O)O)CC3)CC2)c(F)c1 [Example 74, 1-{[4-(4-cyano-2-fluorobenzyl)-4-({[(1R,2S)-2-phenylcyclopropyl]amino}methyl)piperidin-1-yl]methyl}cyclopropanecarboxylic acid] | < 100
COc1ccc(CC2(CN[C@@H]3C[C@H]3c3ccccc3)CCN(CC3(C(=O)O)CC3)CC2)cc1 [Example 98, 1-{[4-(4-methoxybenzyl)-4-({[(1R,2S)-2-phenylcyclopropyl]amino}methyl)piperidin-1-yl]methyl}cyclopropanecarboxylic acid] | < 100
O=C(N1CC(CNC2CC2c2ccccc2)C1)N1CCC[C@@]2(CCN(C3CCC(O)CC3)C2=O)C1 (stereo in doubt) [Example 10, (5R)-2-(cis-4-Hydroxycyclohexyl)-7-[(3-{[(trans-2-phenylcyclopropyl)amino]methyl}azetidin-1-yl)carbonyl]-2,7-diazaspiro[4.5]decan-1-one] | < 100
COCC1(CN[C@@H]2C[C@H]2c2ccccc2)CCN(C(=O)[C@H]2CC[C@@H](CO)CC2)CC1 [Example 101, (cis-4-{[4-(methoxymethyl)-4-({[(1R,2S)-2-phenylcyclopropyl]amino}methyl)piperidin-1-yl]carbonyl}cyclohexyl)methanol] | < 100
O=C(O)C1(CN2CCC(CN[C@@H]3C[C@H]3c3ccccc3)(Cc3ccc(F)cn3)CC2)CC1 [Example 96, 1-{[4-[(5-fluoropyridin-2-yl)methyl]-4-({[(1R,2S)-2-phenylcyclopropyl]amino}methyl)piperidin-1-yl]methyl}cyclopropanecarboxylic acid] | < 100
N#Cc1cccc(CC2(CN[C@@H]3C[C@H]3c3ccccc3)CCN(C[C@H]3CC[C@H](C(=O)O)CC3)CC2)c1 [Example 58, trans-4-{[4-(3-cyanobenzyl)-4-({[(1R,2S)-2-phenylcyclopropyl]amino}methyl)piperidin-1-yl]methyl}cyclohexanecarboxylic acid] | < 100
COCC1(CN[C@@H]2C[C@H]2c2ccccc2)CCN(C(=O)N2CCN(C)CC2)CC1 [Example 43, (1R,2S)—N-({4-(methoxymethyl)-1-[(4-methylpiperazin-1-yl)carbonyl]piperidin-4-yl}methyl)-2-phenylcyclopropanamine] | < 100

Structure (SMILES) | IC50 [nM]
O=C(O)C1(CN2CCC(CN[C@@H]3C[C@H]3c3ccccc3)(Cc3ccc(F)cc3)CC2)CC1 [Example 31, 1-{[4-(4-fluorobenzyl)-4-({[(1R,2S)-2-phenylcyclopropyl]amino}methyl)piperidin-1-yl]methyl}cyclopropanecarboxylic acid] | < 100
Fc1ccc(CN2CCC(N[C@@H]3C[C@H]3c3ccccc3)CC2)cc1 (relative stereo) [Example 5, 1-(4-Fluorobenzyl)-N-(trans-2-phenylcyclopropyl)piperidin-4-amine] | < 100
CCOCC1(CN[C@@H]2C[C@H]2c2ccccc2)CCN(CC2(C(=O)O)CC2)CC1 [Example 70, 1-{[4-(ethoxymethyl)-4-({[(1R,2S)-2-phenylcyclopropyl]amino}methyl)piperidin-1-yl]methyl}cyclopropanecarboxylic acid] | < 100
COCC1(CNC2CC2c2ccc(OC)cc2)CCN(CC2(C(=O)O)CCC2)CC1 (centres unmarked) [Example 67, 1-{[4-(methoxymethyl)-4-({[2-(4-methoxyphenyl)cyclopropyl]amino}methyl)piperidin-1-yl]methyl}cyclobutanecarboxylic acid] | < 100
COc1ccccc1NC(=O)N1CC(CN[C@@H]2C[C@H]2c2ccccc2)C1 (relative stereo) [Example 24, N-(2-Methoxyphenyl)-3-{[(trans-2-phenylcyclopropyl)amino]methyl}azetidine-1-carboxamide] | < 100
N#Cc1ccc(C(=O)N2CC(CN[C@@H]3C[C@H]3c3ccccc3)C2)cc1 (relative stereo) [Example 25, 4-[(3-{[(trans-2-Phenylcyclopropyl)amino]methyl}azetidin-1-yl)carbonyl]benzonitrile] | < 100
O=C(c1cccc(F)c1)N1CC(CN[C@@H]2C[C@H]2c2ccccc2)C1 (relative stereo) [Example 29, N-{[1-(3-Fluorobenzoyl)azetidin-3-yl]methyl}-trans-2-phenylcyclopropanamine] | < 100
COCC1(CN[C@@H]2C[C@H]2c2ccccc2)CCN(C(=O)N2CCC[C@@H](O)C2)CC1 [Example 109, (3R)-1-{[4-(methoxymethyl)-4-({[(1R,2S)-2-phenylcyclopropyl]amino}methyl)piperidin-1-yl]carbonyl}piperidin-3-ol] | < 100
COc1cccc(NC(=O)N2CC(CN[C@@H]3C[C@H]3c3ccccc3)C2)c1 (relative stereo) [Example 23, N-(3-Methoxyphenyl)-3-{[(trans-2-phenylcyclopropyl)amino]methyl}azetidine-1-carboxamide] | < 100
N#Cc1cccc(C(=O)N2CC(CN[C@@H]3C[C@H]3c3ccccc3)C2)c1 (relative stereo) [Example 26, 3-[(3-{[(trans-2-Phenylcyclopropyl)amino]methyl}azetidin-1-yl)carbonyl]benzonitrile] | < 100
COCC1(CN[C@@H]2C[C@H]2c2ccccc2)CCN(C(=O)c2cnn(CCC#N)c2)CC1 [Example 106, 3-(4-{[4-(methoxymethyl)-4-({[(1R,2S)-2-phenylcyclopropyl]amino}methyl)piperidin-1-yl]carbonyl}-1H-pyrazol-1-yl)propanenitrile] | < 100
COCC1(CN[C@@H]2C[C@H]2c2ccccc2)CCN(S(=O)(=O)c2cnn(C)c2)CC1 [Example 114, (1R,2S)—N-({4-(methoxymethyl)-1-[(1-methyl-1H-pyrazol-4-yl)sulfonyl]piperidin-4-yl}methyl)-2-phenylcyclopropanamine] | < 100
COCC1(CN[C@@H]2C[C@H]2c2ccccc2)CCN(Cc2ccc(C(=O)O)cc2)CC1 [Example 62, 4-{[4-(methoxymethyl)-4-({[(1R,2S)-2-phenylcyclopropyl]amino}methyl)piperidin-1-yl]methyl}benzoic acid] | < 100
CNC(=O)c1cccc(OCC2(CN[C@@H]3C[C@H]3c3ccccc3)CCN(CC3(C(=O)O)CC3)CC2)n1 [Example 91, 1-{[4-[({6-[(methylamino)carbonyl]pyridin-2-yl}oxy)methyl]-4-({[(1R,2S)-2-phenylcyclopropyl]amino}methyl)piperidin-1-yl]methyl}cyclopropanecarboxylic acid] | < 100
Cn1ccc(C(=O)N2CCC(C)(CN[C@@H]3C[C@H]3c3ccccc3)CC2)n1 [Example 46, (1R,2S)—N-({4-methyl-1-[(1-methyl-1H-pyrazol-3-yl)carbonyl]piperidin-4-yl}methyl)-2-phenylcyclopropanamine] | < 100
CC1(CN[C@@H]2C[C@H]2c2ccccc2)CCN(CC2(C(=O)O)CC2)CC1 [Example 44, 1-{[4-methyl-4-({[(1R,2S)-2-phenylcyclopropyl]amino}methyl)piperidin-1-yl]methyl}cyclopropanecarboxylic acid] | < 100
